One series has as its system HBV DNA in HepAD38 cells. In words: In-vitro inhibitory activity against HBV DNA in HepAD38 cells. In kind it is cell-based. Conditions: Hepatitis B virus, 144 h, 6 days treatment, intracellular capsid HBV DNA by qPCR, read-out: EC50 (anti-HBV activity). On the procedure: (§1) A vial of HepG2.2.15 cells (Wuhan Institute of Virology) or HepAD38 cells in good condition and at logarithmic growth phase was washed once with 5 mL of PBS. 3 mL of pancreatin was added. The cells were digested at room temperature for 5 min, then 2 mL of pancreatin was discarded. The cells were further digested in a cell incubator for 10 min, and observed under a microscope (whether the cells are round in shape, and whether the cells are separated or adhered). 10 mL of complete medium was added to terminate the digestion. The cells was mixed using a pipette to obtain a single cell suspension. 10 μL of the cell suspension was loaded on a cell counter for counting, and diluted with the complete medium to adjust the cell density to 1×10^5 cells/mL. The cells were seeded on a 24-well plate (pre-coated with 50 μg/mL Collagen I solution) at 1 mL/well using a multi-channel pipette and cultured in a thermostatic CO2 incubator for 48 h.
(§2) A solution of the compound dissolved in DMSO was diluted to 10 concentrations in a 2-fold gradient using complete medium. The cells were treated with the compound for 6 days with the media containing the compound refreshed every 72 h. […] HBV DNA in the intracellular viral capsid was measured by real-time fluorescent quantitative PCR. The inhibition rate was calculated according to the Ct value, and the EC50 value was calculated by four-parameter fitting.
On the technique in general: In qPCR the cycle at which signal appears reflects the starting amount.

For series [1], the system named is HBV DNA in HepG2.2.15 cells. As to the kind of experiment: In-vitro inhibitory activity against HBV DNA in HepG2.2.15 cells. In kind it is cell-based. The following applies: Hepatitis B virus, 144 h, 6 days treatment, intracellular capsid HBV DNA by qPCR, read-out: EC50 (anti-HBV activity). As to the method: as §1, §2
The nature of series [2]: Plasma protein binding assay (equilibrium dialysis), human plasma. In kind it is in vitro ADME. On the procedure:
(§3) Preparation of plasma samples: 5 μL of test compound solution or positive control was added to 495 μL of blank plasma of various species (mouse, rat, dog, monkey and human) to obtain plasma sample solutions at plasma concentrations of 1 μM and 10 μM (in acetonitrile).
(§4) The pretreated dialysis membrane was loaded on a high-throughput equilibrium dialysis system. 100 μL of the plasma sample solution and PBS buffer were added to the two sides (sample side and buffer side) of the dialysis membrane respectively (n=3). The system was sealed with a patch and incubated at 37° C. overnight (100 rpm) to achieve dialysis equilibrium. 50 μL samples were taken from the sample side and the buffer side, and the reaction was terminated with glacial acetonitrile containing an internal standard.
(§5) Sample pretreatment: 450 μL of glacial acetonitrile containing an internal standard was added to 50 μL of the sample from the plasma side for precipitation. The mixture was vortexed for 5 min, and centrifuged (12000 rpm, 4° C.) for 10 min. 75 μL of supernatant was taken and diluted with 75 μL of ultrapure water. After being mixed well, 1 μL of the resulting sample was injected for analysis; 250 μL of glacial acetonitrile containing an internal standard was added to 50 μL of the sample from the PBS side for precipitation. The mixture was vortexed for 5 min, and centrifuged (12000 rpm, 4° C.) for 10 min. […]
On the technique in general: In equilibrium dialysis only unbound substance equilibrates across the membrane.

The nature of series [3]: Plasma protein binding assay (equilibrium dialysis), rat plasma. In kind it is in vitro ADME. As to the method:
as §3, §4, §5

Series [4] in a line: Plasma protein binding assay (equilibrium dialysis), mouse plasma. Type of series: in vitro ADME. As to the method:
as §3, §4, §5

Series [5] in a line: Plasma protein binding assay (equilibrium dialysis), dog plasma. In kind it is in vitro ADME. On the procedure: as §3, §4, §5
Series [6] is described as follows: Plasma protein binding assay (equilibrium dialysis), monkey plasma. In kind it is in vitro ADME. On the procedure: as §3, §4, §5
Series [7] is classed as in vitro ADME. On the procedure:
A final incubation system of 300 μL contained 30 μL of liver microsomes (protein concentration: 0.15 mg/mL), 30 μL of NADPH+MgCl2, 3 μL of substrate (in acetonitrile) and 237 μL of PBS. Samples were prepared in duplicate of 0.3 mL for each specie. For each tube, the 270 μL mixed solution of substrates and enzyme and the NADPH solution were separately pre-incubated at 37° C. for 5 min. The 30 μL mixed solution of NADPH+MgCl2 was added for reaction. 50 μL samples were taken at 0 min, 10 min, 30 min and 60 min, and 300 μL of glacial acetonitrile containing an internal standard was added to the samples to terminate the reaction.
Sample pretreatment: 300 μL of glacial acetonitrile containing internal standard diazepam was added to 50 μL of the incubated sample for precipitation. The mixture was vortexed for 5 min, and centrifuged (12000 rpm, 4° C.) for 10 min. 75 μL of supernatant was added to a 96-well plate and diluted with 75 μL of ultrapure water. After being mixed well, 0.5 μL of the resulting sample was injected to a LC-MS/MS system for analysis.

The nature of series [8]: Pharmacokinetic (PK) study in rats. In kind it is in vivo. Conditions: SD rats, PO 20 mg/kg. As to the method:
SD rats (B&K Universal, Shanghai) of 180-220 g were randomized into groups of 3 after 3-5 days of acclimatization and administered with the compounds at a dose of 20 mg/kg by oral gavage.
The animals to be tested (SD rats) were fasted for 12 h before administration and fed 4 h after administration, and had free access to water before, after and during the experiment.
After administration, about 0.2 mL of blood was collected from the orbit at 0 min, 15 min, 30 min, 1 h, 2 h, 4 h, 6 h, 8 h, 10 h, 24 h, 30 h and 48 h. After anticoagulation with EDTA-K2, the blood samples were transferred to a centrifuge at 4° C. within 30 min and centrifuged at 4000 rpm for 10 min to separate the plasma. All the plasma samples were collected and immediately stored at −20° C. for testing. 50 μL of the plasma sample to be tested and standard curve sample were taken, and 500 μL of acetonitrile solution containing an internal standard (20 mg/mL diazepam) was added. The reaction system was shaken for 5 min and centrifuged at 12,000 rpm for 10 min. 75 μL of supernatant was taken and diluted with 75 μL of ultrapure water.
After being mixed well, 1 μL of the resulting sample was taken for LC/MS/MS analysis.

A short description of series [9]: Stability assay of crystalline form (influential factors: high temperature, high humidity, illumination). Type of series: physicochemical. Conditions: for Stability at high humidity, at high temperature or under illumination (in words): related substance and water over the observation items. As to the method: The crystalline form I of the compound of formula I prepared in Example 2 and the crystalline form II of the compound of formula I prepared in Example 4, each of 500 mg, were separately placed in dry and clean containers, and evenly spread in thin layers as test samples. The samples were completely exposed to experimental conditions of influential factors (40° C., 60° C., 75% RH, 92.5% RH, high temperature and high humidity (40° C., 75% RH)). Samples were taken for analysis on day 10 and day 30. The samples were completely exposed to illumination (visible light of 1,200,000 Lux·hr, UV of 216 W·hr/m^2) at room temperature.
Chromatographic column: Agilent AdvanceBio Peptide C18 (4.6 mm×150 mm, 3.5 μm).
The water content was measured by a Mettler V20 system.
About 10 mg of the sample was dissolved with an appropriate amount of a mixed diluent of acetonitrile-water (70:30) for content assay of related substance.

The mark [10] stands for this setting: High humidity (92.5% RH), Day 10.
Where [11] appears, read: High humidity (92.5% RH), Day 30.
[12] abbreviates: High temperature (40° C.), Day 10.
The mark [13] stands for this setting: High temperature (40° C.), Day 30.
The mark [14] stands for this setting: High temperature (60° C.), Day 10.
The mark [15] stands for this setting: High temperature (60° C.), Day 30.
[16] abbreviates: High temperature and high humidity (40° C., 75% RH), Day 10.
[17] abbreviates: High temperature and high humidity (40° C., 75% RH), Day 30.

As a reminder, the EC50 is the concentration needed to bring the measured effect to its halfway point. Consider `Cc1c(C(=O)Nc2ccc(F)c(C#N)c2)c(C)n(C)c1C(=O)C(=O)N[C@@H](C)C(F)(F)F` [Compound of formula I, (S)—N-(3-cyano-4-fluorophenyl)-1,2,4-trimethyl-5-(2-oxo-2-((1,1,1-trifluoropropan-2-yl)amino)acetyl)-1H-pyrrol-3-carboxamide], for which the EC50 (with HBV DNA in HepAD38 cells; in series [1]) was at most 10 nM each time. In addition, the “Binding rate, Human” value in series [2] (1 μM) worked out at 94.0%; in series [2] (10 μM), 93.7%. The results for the “Binding rate, Rat” value in series [3] (1 μM) and in [3] (10 μM) were 82.0% and 79.2%, respectively. Moreover, the “Binding rate, Mouse” value in series [4] (1 μM) stood at 75.3%; in series [4] (10 μM) it was 74.5%. In addition, the “Binding rate, Dog” value in series [5] (1 μM) and in [5] (10 μM) was 85.9% throughout. Also, the “Binding rate, Monkey” value was 90.7% in series [6] (1 μM) and 90.6% in series [6] (10 μM). The “Residual content after 60 min, Human liver microsome” value in series [7] was 78.8%. In addition, the “Residual content after 60 min, Mouse liver microsome” value in series [7] worked out at 67.1%. Moreover, in series [7], the “Residual content after 60 min, Rat liver microsome” value was 65.0%. In [8], this compound came in with an F of 57%.

Consider `Cc1c(C(=O)Nc2ccc(F)c(C#N)c2)c(C)n(C)c1C(=O)C(=O)N[C@@H](C)C(F)(F)F` [crystalline form I, (S)—N-(3-cyano-4-fluorophenyl)-1,2,4-trimethyl-5-(2-oxo-2-((1,1,1-trifluoropropan-2-yl)amino)acetyl)-1H-pyrrol-3-carboxamide], for which the “Related substance (total impurities)” value in [9] (Day 0) was found to be 0.55%; in [9] (High humidity (75% RH), Day 10), 0.72%; in series [9] (High humidity (75% RH), Day 30), 0.66%; in series [9] (setting [10]), 0.69%; in series [9] (setting [11]) it was 0.66%; in [9] (setting [12]) it was 0.66%. For the same compound, the “Related substance (total impurities)” value in series [9] (setting [13]) was determined as 0.63%; in series [9] (setting [14]), 0.66%; in series [9] (setting [15]) it was 0.60%; in series [9] (setting [16]), 0.64%; in series [9] (setting [17]), 0.64%; in series [9] (Illumination, Day 10), 0.63%. For the same compound, the Water in series [9] (Day 0) was 0.27%; in [9] (High humidity (75% RH), Day 10), 0.19%; in [9] (High humidity (75% RH), Day 30), 0.20%; in [9] (setting [10]), 0.21%; in series [9] (setting [11]), 0.26%; in [9] (setting [12]), 0.18%. Moreover, the Water was found to be 0.19% in series [9] (setting [13]); 0.20% in series [9] (setting [14]); 0.18% in series [9] (setting [15]); 0.17% in series [9] (setting [16]); 0.22% in series [9] (setting [17]); 0.16% in [9] (Illumination, Day 10). Moreover, the “Stability at high humidity, at high temperature or under illumination (in words)” value in series [9] is given as “good stability”.

Consider `Cc1c(C(=O)Nc2ccc(F)c(C#N)c2)c(C)n(C)c1C(=O)C(=O)N[C@@H](C)C(F)(F)F` [crystalline form II, (S)—N-(3-cyano-4-fluorophenyl)-1,2,4-trimethyl-5-(2-oxo-2-((1,1,1-trifluoropropan-2-yl)amino)acetyl)-1H-pyrrol-3-carboxamide], for which the “Related substance (total impurities)” value in series [9] (Day 0) was 0.24%; in [9] (High humidity (75% RH), Day 10), 0.23%; in series [9] (High humidity (75% RH), Day 30), 0.25%; in [9] (setting [10]), 0.23%; in series [9] (setting [11]), 0.24%; in [9] (setting [12]), 0.22%. Also, the “Related substance (total impurities)” value worked out at 0.24% in series [9] (setting [13]); 0.22% in [9] (setting [14]); 0.24% in [9] (setting [15]); 0.24% in series [9] (setting [16]); 0.24% in [9] (setting [17]); 0.27% in series [9] (Illumination, Day 10). The Water in series [9] (Day 0) amounted to 0.22%; in series [9] (High humidity (75% RH), Day 10), 0.22%; in series [9] (High humidity (75% RH), Day 30) it was 0.21%; in series [9] (setting [10]) it was 0.22%; in series [9] (setting [11]) it was 0.21%; in series [9] (setting [12]), 0.20%. Also, the Water was found to be 0.19% in series [9] (setting [13]); 0.18% in series [9] (setting [14]); 0.18% in series [9] (setting [15]); 0.24% in [9] (setting [16]); 0.21% in series [9] (setting [17]); 0.22% in [9] (Illumination, Day 10). In series [9], the “Stability at high humidity, at high temperature or under illumination (in words)” value was “good stability”.

Source of the values: patent US12378192B2, “Crystalline form of capsid protein assembly inhibitor containing N hetero five-membered ring, and application thereof” (CHIA TAI TIANQING PHARMACEUTICAL GROUP CO., LTD., priority 2019, dated 2025).
